From ChEMBL document CHEMBL4342475, “Structure-Bioactivity Relationships of Lapatinib Derived Analogs against Schistosoma mansoni” (ACS Med Chem Lett, 2020)
Converted amounts (≈) assume the structure as drawn. The source made the active and inactive calls. The calls are words filed in the database; no cut-off is given here.

How the values were obtained:
Schistosoma mansoni [1] = test: Antiparasitic activity against Schistosoma mansoni infected in Hamster assessed as severity score at 10 uM incubated for 1 hr; assay type: functional, organism-based
Schistosoma mansoni [2] = test: Antiparasitic activity against Schistosoma mansoni infected in Hamster assessed as severity score at 10 uM incubated for 5 hrs; assay type: functional, organism-based
[3] = Cytotoxicity against human HepG2 cells assessed as reduction in cell viability 48 hrs by MTT assay; assay type: cell-based; settings: read-out: TC50
[4] = Aqueous solubility of compound incubated for 24 hrs by LC-MS/MS analysis; assay type: physicochemical; settings: buffer, 24 h
[5] = Protein binding in human plasma at 1 uM by LC-MS/MS analysis; assay type: ADME, cell-free
[6] = Metabolic stability in human liver microsomes assessed as intrinsic clearance by LC-MS/MS analysis; assay type: ADME, Microsome
Schistosoma mansoni [7] = test: Antiparasitic activity against Schistosoma mansoni infected in Hamster assessed as severity score at 10 uM incubated for 48 hrs; assay type: functional, organism-based
Schistosoma mansoni [8] = test: Antiparasitic activity against Schistosoma mansoni infected in Hamster assessed as severity score at 10 uM incubated for 24 hrs; assay type: functional, organism-based

solubility [4]: 580 µM (≈ 256 µg/mL)
PPB [5]: 88%
intrinsic clearance [6]: 160 µL/min/mg
Structure (SMILES): CCN1CCCN(c2ncc(-c3ccc4c(Nc5cnccn5)ccnc4c3C)cn2)CC1
Activity (Schistosoma mansoni [1]): inactive
Activity (Schistosoma mansoni [2]): inactive
CC50 at 48 h [3]: 16 µM
Activity (Schistosoma mansoni [7]): inactive
Activity (Schistosoma mansoni [8]): inactive
